Test results published in patent publication US20260242359A1, “IRHOM2 INHIBITORS AND USES THEREOF” (NEW YORK SOCIETY FOR THE RELIEF OF THE RUPTURED AND …, priority 2023, published 2026).

Tested on: LPS-induced release of endogenous TNFα from human peripheral blood mononuclear cells (PBMCs)
Test: Example 13: ELISA-based TNFα release assay, LPS-induced, PBMCs from healthy donor
Type: cell-based
Conditions: 10 μM final concentration, LPS 50 ng/ml, delta Buffer stimulated vs unstimulated = 100% inhibition; for inhibition at 10 µM: Homo sapiens, PBMC
Experimental: In the following study, ELISA-based TNFα release assay was performed to verify the inhibitory effects of Compounds 1, 2, 3, 4, 5, and 7 on LPS-induced release of endogenous TNFα from primary human material obtained from healthy donor using peripheral blood mononuclear cells (PBMCs). The ELISA-based TNFα release assay that was used in this example is described below.
In brief, on day 1, Nunc black MaxiSorp® 96-well plates (Thermo Fisher Scientific, USA) were coated overnight with 100 μl per well of mouse anti-human TNFα capture antibody (provided as part of the DuoSet ELISA kit) at 4 μg/ml TBS at 4° C. On day 2, the capture antibody solution was removed and MaxiSorp® plates were blocked with 300 μl per well of TBS, 1% BSA at room temperature for 3 hours. Meanwhile, 20,000 PBMCs from healthy donor (SciRhom GmbH, Germany) in 80 μl of normal growth medium were seeded in each well of Greiner CELLSTAR V-bottom 96-well plates (Thermo Fisher Scientific, USA) and pre-incubated with 20 μl per well of standard growth medium supplemented with Batimastat (BB94, Abcam, UK) at 50 μM as positive control (for a final concentration of 10 μM in the resulting 100 μl sample volume), compounds of the invention at 50 μM (for a final concentration of 10 μM in the resulting 100 μl sample volume) and in case of Buffer stimulated and unstimulated controls with DMSO (Carl Roth, Germany) at 50 μM (for a final concentration of 10 μM in the resulting 100 μl sample volume) at 37° C., 5% CO2 for 30 minutes. Subsequently, cells (except those for unstimulated controls) were stimulated with 20 μl per well of LPS (Sigma-Aldrich, USA) at 300 ng/ml growth medium for a final concentration of 50 ng/ml at 37° C., 5% CO2 for 2 hours. Afterwards, the 96-well plates were centrifuged to pellet cells. In parallel, blocking buffer was removed from the MaxiSorp® plates and plates were washed 4 times with 350 μl per well of TBS-T (Carl Roth, Germany) on a 96-head plate washer (Tecan Group, Switzerland). To avoid drying-up, 30 μl of TBS were added to each well of the MaxiSorp® plates immediately, followed by the transfer of 70 μl of cell-free supernatant per sample. Additionally, 100 μl of recombinant human TNFα protein (provided as part of the DuoSet ELISA kit) diluted in TBS at defined concentrations were added to the plate as standard references. Thereafter, 100 μl per well of biotinylated goat anti-human TNFα detection antibody (provided as part of the DuoSet ELISA kit) at 50 ng/ml TBS were added and, protected from direct light, plates were incubated at room temperature for 2 hours. After 4 times washing with 350 μl per well of TBS-T (Carl Roth, Germany) on a 96-head plate washer (Tecan Group, Switzerland) and careful removal of all buffer traces after the fourth cycle, 100 μl of streptavidin-AP (R&D Systems, USA) diluted 1:10,000 in TBS were added to each well and, again protected from direct light, plates were incubated at room temperature for 30 minutes. Following another round of 4 times washing with 350 μl per well of TBS-T (Carl Roth, Germany) on a 96-head plate washer (Tecan Group, Switzerland) and careful removal of all buffer traces after the fourth cycle, 100 μl of AttoPhos substrate solution (Promega, USA) was added for incubation in the dark at room temperature for 1 hour. Using an infinite M1000 PRO (Tecan Group, Switzerland) microplate reader, the fluorescence of each well was collected at an excitation wavelength of 435 nm and an emission wavelength of 555 nm.
The delta between Buffer stimulated and Buffer unstimulated was defined 100% inhibition.

Row | SMILES | inhibition of LPS-induced release of TNFα from human PBMCs (2 hours) | inhibition at 10 µM (2 h) | inhibition at 10 µM (2 hours)
1 | CNC(=O)[C@H](Cc1ccccc1)NC(=O)[C@H](CC(C)C)[C@H](CSc1cccs1)C(=O)NO [Batimastat, reference compound] | 114.9% | 99.5% | –
2 | CCC(=O)NCCc1c(/C=C2/C(=O)NC(=O)N(c3ccc(C)cc3C)C2=O)[nH]c2ccccc12 [Compound 1] | – | – | 99.5%
3 | CCOC(=O)c1ccc(Nc2nc3nonc3n3nnnc23)cc1 [Compound 2] | – | 98.6% | –
4 | O=C(c1c(Cl)cccc1Cl)N1CCC(Cc2ccc(F)cc2)CC1 [Compound 3] | – | 76.3% | –
5 | Cc1c(C(=O)NCc2cccs2)sc(=O)n1Cc1ccccc1 [Compound 4] | – | 42% | –
6 | Cc1c(C(=O)NCc2cccs2)sc(=O)n1Cc1ccccc1F [Compound 5] | – | 51.3% | –
7 | Cc1c(C(=O)NCc2ccco2)sc(=O)n1Cc1ccccc1F [Compound 7] | – | 72.5% | –
